# Source: US20230190740A1, “AN NK-1 RECEPTOR ANTAGONIST FOR TREATING A DISEASE SELECTING FROM SEPSIS, SEPTIC SHOCK, ACUTE RESPIRATORY DISTRESS SYNDROME (ARDS) OR MULTIPLE ORGAN D[…] (MODS)” (NeRRe Therapeutics Limited, priority 2020, published 2023)
# Columns and labels:
# [1] = system: pulmonary inflammation induced by intranasal lipopolysaccharide (LPS) challenge; assay: LPS induced neutrophilia model of lung inflammation and injury (mouse model of ARDS): inflammatory cell counts in BALF; format: in vivo, female C57BL6J mice; parameters: key to WBC cell counts, 4 hr Statistical significance / Neutrophils cell counts, 4 hr Statistical significance: * p < 0.05; ** p < 0.01; *** p < 0.001; **** p < 0.0001.; not significant (NS)
# Experimental: (§1) Orvepitant was evaluated in the established mouse model of ARDS; the LPS induced neutrophilia model of lung inflammation and injury.
# (§2) The effects of vehicle control or orvepitant (250 mg/kg of orvepitant maleate anhydrous crystalline form [Form 1]), dosed orally 1 hour prior to challenge, on pulmonary inflammation induced by a single intranasal challenge dose (10 ug/kg) of either proinflammatory lipopolysaccharide (LPS), or phosphate-buffered saline (PBS) control, was investigated in female C57BL6J mice. Animals were euthanised at either 4 or 24 hours, and inflammatory cell counts and mediators were assayed in bronchoalveolar lavage (BALF) from all animals.
# (§3) Key: Bronchoalveolar lavage fluid (BALF); intranasal (in); lipopolysaccharide (LPS); number of female C57BL6J mice/group (n); per os (po); phosphate buffered saline (PBS).
# [2] = system: proinflammatory mediators in BALF after intranasal lipopolysaccharide (LPS) challenge; assay: LPS induced neutrophilia model of lung inflammation and injury (mouse model of ARDS): proinflammatory mediators in BALF; format: in vivo, female C57BL6J mice; parameters: key to IL-1β, 4 hr Statistical significance / TNFα, 24 hr Statistical significance / VEGF-A, 4 hr Statistical significance / MCP-1, 4 hr Statistical significance: * p < 0.05; ** p < 0.01; *** p < 0.001; **** p < 0.0001.; not significant (NS)
# Experimental: as §1, §2, §3
# [3] = 250 mg/kg per os 1 hour prior to LPS intranasal challenge, BALF at 4 hr, vs vehicle/LPS group
# [4] = 250 mg/kg per os 1 hour prior to LPS intranasal challenge, BALF at 24 hr, vs vehicle/LPS group
# [5] = 250 mg/kg per os, BALF at 4 hr after LPS intranasal challenge, vs vehicle/LPS group
# [6] = 250 mg/kg per os, BALF at 24 hr after LPS intranasal challenge, vs vehicle/LPS group
structure (smiles),measurement,setting,value
"Cc1cc(F)ccc1[C@H]1C[C@@H](N2CCN3C(=O)CC[C@H]3C2)CCN1C(=O)N(C)[C@H](C)c1cc(C(F)(F)F)cc(C(F)(F)F)c1 [orvepitant, 2-(R)-(4-Fluoro-2-methyl-phenyl)-4-(S)-((8aS)-6-oxo-hexahydro-pyrrolo[1,2-a]-pyrazin-2-yl)-piperidine-1-carboxylic acid [1-(R)-(3,5-bis-trifluoromethyl-phenyl)-ethyl]-methylamide]",effect on inflammatory cell migration,"[1]; 250 mg/kg orally, ARDS LPS induced neutrophilia model",ameliorated
same,"Neutrophils cell counts, 4 hr Statistical significance",[1]; [3],NS
same,"WBC cell counts, 4 hr Statistical significance",[1]; [3],NS
same,"Neutrophils cell counts, 24 hr Statistical significance",[1]; [4],*** (*** p < 0.001)
same,"WBC cell counts, 24 hr Statistical significance",[1]; [4],*** (*** p < 0.001)
same,effect on range of proinflammatory mediators measured in the BALF,"[2]; 250 mg/kg orally, at both 4 and 24 hours, vs vehicle treated LPS-challenged animals",reduced
same,"IL17A, 4 hr % mean reduction",[2]; [5],(36%)
same,"IL17A, 4 hr Statistical significance",[2]; [5],**** (**** p < 0.0001.)
same,"IL-1β, 4 hr Statistical significance",[2]; [5],NS
same,"IL-6, 4 hr % mean reduction",[2]; [5],(44%)
same,"IL-6, 4 hr Statistical significance",[2]; [5],** (** p < 0.01)
same,"MCP-1, 4 hr Statistical significance",[2]; [5],NS
same,"TNFα, 4 hr % mean reduction",[2]; [5],(26%)
same,"TNFα, 4 hr Statistical significance",[2]; [5],* (* p < 0.05)
same,"VEGF-A, 4 hr Statistical significance",[2]; [5],NS
same,"IL17A, 24 hr % mean reduction",[2]; [6],(47%)
same,"IL17A, 24 hr Statistical significance",[2]; [6],* (* p < 0.05)
same,"IL-1β, 24 hr % mean reduction",[2]; [6],(33%)
same,"IL-6, 24 hr % mean reduction",[2]; [6],(39%)
same,"MCP-1, 24 hr % mean reduction",[2]; [6],(56%)
same,"MCP-1, 24 hr Statistical significance",[2]; [6],** (** p < 0.01)
same,"TGF-β1, 24 hr % mean reduction",[2]; [6],(62%)
same,"TGF-β1, 24 hr Statistical significance",[2]; [6],*** (*** p < 0.001)
same,"TNFα, 24 hr Statistical significance",[2]; [6],NS
same,"VEGF-A, 24 hr % mean reduction",[2]; [6],(32%)
